Patent US6649608B2, “2,4-di(hetero-)arylamino (oxy)-5-substituted pyrimidines as antineoplastic agents” (AstraZeneca AB, priority 2000, dated 2003)

Legend:
CDK4/Cyclin D1 = molecular target: T1, CDK4/Cyclin D1 (Homo sapiens, UniProt P11802); test: CDK4 Inhibition Assay (SPA, GST-Rb substrate); format: biochemical; details: in vitro kinase assay; read-out: CDK4 inhibitory activity IC50
T1 construct: made in house; host or cells: SF21 insect cells (Spodoptera frugiperda), baculovirus co-infection; vector pVL1393
T1 sequence (P11802 whole entry): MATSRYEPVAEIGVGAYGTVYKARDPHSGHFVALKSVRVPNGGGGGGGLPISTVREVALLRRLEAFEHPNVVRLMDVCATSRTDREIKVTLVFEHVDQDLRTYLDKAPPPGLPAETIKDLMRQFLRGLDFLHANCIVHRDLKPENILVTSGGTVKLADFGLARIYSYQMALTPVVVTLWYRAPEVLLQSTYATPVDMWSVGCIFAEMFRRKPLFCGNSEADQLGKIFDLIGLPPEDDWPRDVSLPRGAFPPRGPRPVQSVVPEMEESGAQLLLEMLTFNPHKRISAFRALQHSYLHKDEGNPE
T1 sequence (P24385 whole entry partner): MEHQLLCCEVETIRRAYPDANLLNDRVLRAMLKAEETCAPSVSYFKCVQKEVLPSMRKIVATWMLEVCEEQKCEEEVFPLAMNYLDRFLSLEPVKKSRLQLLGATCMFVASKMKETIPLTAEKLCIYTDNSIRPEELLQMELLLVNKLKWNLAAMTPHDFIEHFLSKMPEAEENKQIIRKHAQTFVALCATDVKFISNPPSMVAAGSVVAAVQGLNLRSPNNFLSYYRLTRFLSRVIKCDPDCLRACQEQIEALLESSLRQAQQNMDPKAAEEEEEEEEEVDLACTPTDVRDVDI
Description: The compounds were tested in an in vitro kinase assay in 96 well format using Scintillation Proximity Assay (SPA—obtained from Amersham) for measuring incorporation of [γ-33-P]-Adenosine Triphosphate into a test substrate (GST-Retinoblastoma). In each well was placed the compound to be tested (diluted in DMSO and water to correct concentrations) and in control wells either p16 as an inhibitor control or DMSO as a positive control.
Approximately 0.5 μl of CDK4/Cyclin D1 partially-purified enzyme (amount dependent on enzyme activity) diluted in 25 μl incubation buffer was added to each well then 20 μl of GST-Rb/ATP/ATP33 mixture (containing 0.5 μg GST-Rb and 0.2 μM ATP and 0.14 μCi [γ-33-P]-Adenosine Triphosphate), and the resulting mixture shaken gently, then incubated at room temperature for 60 minutes. […]
The plates were sealed with Topseal-S plate sealers, left for two hours then spun at 2500 rpm, 1124×g., for 5 minutes. The plates were read on a Topcount for 30 seconds per well. […]
E. coli paste was resuspended in 10 ml/g of NETN buffer (50 mM Tris pH 7.5, 120 mM NaCl, 1 mM EDTA, 0.5% v/v NP-40, 1 mM PMSF, 1 ug/ml leupeptin, 1 ug/ml aprotinin and 1 ug/ml pepstatin) and sonicated for 2×45 seconds per 100 ml homogenate. […] The final product was analysed by Sodium Dodeca Sulfate (SDS) PAGE (Polyacrylamide gel) using 8-16% Tris-Glycine gels (Novex, San Diego, USA). […]

[1] = molecular target: T2, human Focal Adhesion Kinase (FAK) (Homo sapiens, UniProt Q05397); test: FAK3 Kinase Inhibition Assay (in vitro enzyme ELISA); format: biochemical; details: read-out: FAK inhibitory activity IC50
T2 construct: FAK (fall length human cDNA described by Andre et al); made in house; host or cells: insect cells (Sf21; printed 'Sf12'), baculovirus, pFastbac 1; cell lysate supernatant used as enzyme stock
T2 sequence (Q05397 whole entry): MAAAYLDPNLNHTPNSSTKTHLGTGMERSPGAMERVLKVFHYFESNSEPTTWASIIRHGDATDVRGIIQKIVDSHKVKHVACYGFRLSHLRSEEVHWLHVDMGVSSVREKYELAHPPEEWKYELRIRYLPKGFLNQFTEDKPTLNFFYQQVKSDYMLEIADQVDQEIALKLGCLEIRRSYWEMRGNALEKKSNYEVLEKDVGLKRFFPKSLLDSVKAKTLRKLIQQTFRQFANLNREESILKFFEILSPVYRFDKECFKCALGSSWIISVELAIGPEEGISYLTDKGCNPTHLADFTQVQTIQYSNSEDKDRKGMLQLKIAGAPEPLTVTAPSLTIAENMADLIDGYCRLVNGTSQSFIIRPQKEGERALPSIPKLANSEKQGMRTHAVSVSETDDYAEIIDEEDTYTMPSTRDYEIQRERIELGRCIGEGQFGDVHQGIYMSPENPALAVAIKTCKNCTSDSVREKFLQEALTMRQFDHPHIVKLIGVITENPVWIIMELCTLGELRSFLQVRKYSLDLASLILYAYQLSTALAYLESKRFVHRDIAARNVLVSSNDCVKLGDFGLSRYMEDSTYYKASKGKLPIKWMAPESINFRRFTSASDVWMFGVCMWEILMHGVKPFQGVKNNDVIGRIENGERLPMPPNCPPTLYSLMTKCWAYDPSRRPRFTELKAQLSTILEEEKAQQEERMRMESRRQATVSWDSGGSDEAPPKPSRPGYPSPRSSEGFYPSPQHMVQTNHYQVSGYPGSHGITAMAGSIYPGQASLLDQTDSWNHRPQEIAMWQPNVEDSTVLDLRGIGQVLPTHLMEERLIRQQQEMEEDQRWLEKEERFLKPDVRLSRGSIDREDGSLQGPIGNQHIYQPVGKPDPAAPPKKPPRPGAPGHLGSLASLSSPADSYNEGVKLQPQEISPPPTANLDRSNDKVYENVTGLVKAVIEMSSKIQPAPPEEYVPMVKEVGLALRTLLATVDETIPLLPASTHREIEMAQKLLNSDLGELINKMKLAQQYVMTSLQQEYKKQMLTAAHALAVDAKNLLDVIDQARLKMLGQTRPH
Excerpt: This assay determines the ability of a test compound to inhibit tyrosine kinase activity of human Focal Adhesion Kinase (FAK).
DNA encoding FAK is obtained by total gene synthesis (Edwards M, International Biotechnology Lab 5(3), 19-25, 1987) or by cloning. These are then expressed in a suitable expression system to obtain polypeptide with tyrosine kinase activity.
Active FAK protein has been previously expressed in a baculovirus system using a similar N-terminal 6-histidine tag (Protein Expression And Purification, 1996, 7: 12-18). The human FAK cDNA was cloned into the baculovirus transplacement vector, pFastbac 1 (Life Technologies), and the recombinant construct was co-transfected into insect cells (for example Spodoptera frugiperda 21(Sf21)) with viral DNA to prepare recombinant baculovirus (details of the methods for the assembly of recombinant DNA molecules and the preparation and use of recombinant baculovirus can be found in standard texts for example Sambrook et al, 1989, Molecular cloning—A Laboratory Manual, 2nd edition, Cold Spring Harbour Laboratory Press and O'Reilly et al, 1992, Baculovirus Expression Vectors—A Laboratory Manual, W.H. Freeman and Co, New York. Details specific to the use of the pFastbac (‘Bac to Bac’) system are provided in Anderson et al., 1995, FOCUS (Life Technologies Bulletin Magazine), 17, p53.) […]

IC50 (CDK4/Cyclin D1) [nM] | IC50 [1] [nM] | Structure (SMILES)
235 |  | O=C(NCCN1CCCCC1)c1ccc(Nc2ncc(Br)c(Nc3ccccc3)n2)cc1 [Example 45]
 | 97 | CCCCN(CCCC)CCCNC(=O)c1ccc(Nc2ncc(Br)c(Nc3ccccc3)n2)cc1 [Example 47]
 | 814 | O=C(c1ccc(Nc2ncc(Br)c(Nc3ccccc3)n2)cc1)N1CCC(N2CCCC2)CC1 [Example 52]
